Experiments:
Format in all cases: in vivo
[1] = tested on: common (oilseed) sunflower (Helianthus annuus); test: Test B pre-/postemergence plant response; settings: Preemergence
Method in brief: (§1)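 Seeds were sown and sprayed preemergence, while plants at 2 to 18 cm (1- to 4-leaf stage) got postemergence sprays. Compounds were formulated in a non-phytotoxic solvent mixture with surfactant. After 13 to 15 days in a greenhouse, injury was rated visually against untreated controls, 0 (no effect) to 100 (complete control).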

[2] = tested on: goosegrass (Eleusine indica); test: Test B pre-/postemergence plant response; settings: for Goosegrass plant response rating: 8 g ai/ha
Method in brief: as §1

[3] = tested on: large crabgrass (Digitaria sanguinalis); test: Test B pre-/postemergence plant response; settings: for Crabgrass, Large plant response rating: 8 g ai/ha
Method in brief: as §1

[4] = tested on: velvetleaf (Abutilon theophrasti); test: Test B pre-/postemergence plant response; settings: for Velvetleaf plant response rating: 8 g ai/ha
Method in brief: as §1

[5] = tested on: giant foxtail (Setaria faberii); test: Test B pre-/postemergence plant response; settings: for Foxtail, Giant plant response rating: 8 g ai/ha
Method in brief: as §1

[6] = tested on: pigweed (Amaranthus retroflexus); test: Test B pre-/postemergence plant response; settings: for Pigweed plant response rating: 8 g ai/ha
Method in brief: as §1

[7] = tested on: woolly cupgrass (Eriochloa villosa); test: Test B pre-/postemergence plant response; settings: for Cupgrass, Woolly plant response rating: 8 g ai/ha
Method in brief: as §1

wild oat (Avena fatua) = test: Test B pre-/postemergence plant response; settings: for Oat, Wild plant response rating: 8 g ai/ha
Method in brief: as §1

[8] = tested on: eastern black (E.B.) nightshade (Solanum ptycanthum); test: Test B pre-/postemergence plant response; settings: Preemergence
Method in brief: as §1

[9] = tested on: green foxtail (Setaria viridis); test: Test B pre-/postemergence plant response; settings: for Foxtail, Green plant response rating: 8 g ai/ha
Method in brief: as §1

[10] = tested on: common ragweed (Ambrosia elation); test: Test B pre-/postemergence plant response; settings: for Ragweed plant response rating: 8 g ai/ha
Method in brief: as §1

[11] = tested on: johnsongrass (Sorghum halepense); test: Test B pre-/postemergence plant response; settings: for Johnsongrass plant response rating: 8 g ai/ha
Method in brief: as §1

[12] = tested on: ducksalad (Heteranthera limosa); test: Test B flooded paddy test plant response
Method in brief: (§2)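 Step one: raise plants to 2 leaves. Step two: flood pots 3 cm over the soil and apply compound into the water, keeping this depth. Step three: after 13–15 greenhouse days, score visually versus controls, 0–100, where 100 means complete control.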

rice (Oryza sativa) = test: Test B flooded paddy test plant response
Method in brief: as §2

[13] = 16 g ai/ha, scale 0 to 100 (0 no effect, 100 complete control)
[14] = 31 g ai/ha, scale 0 to 100 (0 no effect, 100 complete control)
[15] = Postemergence, 16 g ai/ha, scale 0 to 100
[16] = Postemergence, 31 g ai/ha, scale 0 to 100
[17] = Postemergence, 62 g ai/ha, scale 0 to 100, 0 no effect, 100 complete control
[18] = Preemergence, 16 g ai/ha, scale 0 to 100 (0 no effect, 100 complete control)
[19] = Preemergence, 31 g ai/ha, 0 to 100 scale, 0 no effect, 100 complete control
[20] = Preemergence, 62 g ai/ha, scale 0 to 100
[21] = Preemergence, 31 g ai/ha, scale 0 to 100 (0 no effect, 100 complete control)
[22] = Flood (flooded paddy test), 62 g ai/ha, scale 0 to 100, 0 no effect, 100 complete control
[23] = Flood (flooded paddy test), 125 g ai/ha, scale 0 to 100, 0 no effect, 100 complete control
[24] = Flood (flooded paddy test), 250 g ai/ha, scale 0 to 100, 0 no effect, 100 complete control
[25] = Flood, 31 g ai/ha, scale 0 to 100

`Cc1cc(-c2ccc(Cl)cc2)nn1-c1c(OC(=O)c2ccccc2)cnn(C)c1=O` [Compound 48] was tested, and the “Plant response rating, Sunflower” value [1, 13] was 0, the “Plant response rating, Sunflower” value [1, 14] was 0 and the “Plant response rating, Sunflower” value ([1]; 62 g ai/ha, scale 0 to 100) was 0. For the same molecule, the “Sunflower plant response rating” value ([1]; 8 g ai/ha, scale 0 to 100) was 0, the “Goosegrass plant response rating” value ([2]; postemergence, 0-100 scale) was 15 and the “Plant response rating, Goosegrass” value [2, 15] was 65. The “Plant response rating, Goosegrass” value [2, 16] was 75, the “Plant response rating, Goosegrass” value [2, 17] was 95 and the “Plant response rating, Goosegrass” value [2, 18] was 0. For the same molecule, the “Plant response rating, Goosegrass” value [2, 19] was 0, the “Plant response rating, Goosegrass” value [2, 20] was 20 and the “Goosegrass plant response rating” value ([2]; Preemergence, scale 0 to 100) was 0. The “Crabgrass, Large plant response rating” value ([3]; postemergence, 0-100 scale) was 70, the “Plant response rating, Crabgrass, Large” value [3, 15] was 85 and the “Plant response rating, Crabgrass, Large” value [3, 16] was 90. The “Plant response rating, Crabgrass, Large” value [3, 17] was 100, the “Plant response rating, Crabgrass, Large” value [3, 18] was 0 and the “Plant response rating, Crabgrass, Large” value [3, 19] was 0. The “Plant response rating, Crabgrass, Large” value [3, 20] was 0, the “Crabgrass, Large plant response rating” value ([3]; Preemergence, scale 0 to 100) was 0 and the “Velvetleaf plant response rating” value ([4]; postemergence, 0-100 scale) was 0. The “Plant response rating, Velvetleaf” value [4, 15] was 0, the “Plant response rating, Velvetleaf” value [4, 16] was 0 and the “Plant response rating, Velvetleaf” value [4, 17] was 0. For the same molecule, the “Plant response rating, Velvetleaf” value [4, 18] was 0, the “Plant response rating, Velvetleaf” value [4, 21] was 0 and the “Plant response rating, Velvetleaf” value ([4]; Preemergence, 62 g ai/ha, 0 to 100 scale, 0 no effect, 100 complete control) was 0. The “Velvetleaf plant response rating” value ([4]; Preemergence, scale 0 to 100) was 0, the “Foxtail, Giant plant response rating” value ([5]; postemergence, 0-100 scale) was 85 and the “Plant response rating, Foxtail, Giant” value [5, 15] was 95. For the same molecule, the “Plant response rating, Foxtail, Giant” value [5, 16] was 100, the “Plant response rating, Foxtail, Giant” value [5, 17] was 100 and the “Plant response rating, Foxtail, Giant” value [5, 18] was 0. For the same molecule, the “Plant response rating, Foxtail, Giant” value [5, 19] was 0, the “Plant response rating, Foxtail, Giant” value [5, 20] was 0 and the “Foxtail, Giant plant response rating” value ([5]; Preemergence, scale 0 to 100) was 0. The “Pigweed plant response rating” value ([6]; postemergence, 0-100 scale) was 0, the “Plant response rating, Pigweed” value [6, 15] was 0 and the “Plant response rating, Pigweed” value [6, 16] was 0. The “Plant response rating, Pigweed” value [6, 17] was 0, the “Plant response rating, Pigweed” value [6, 18] was 0 and the “Plant response rating, Pigweed” value [6, 21] was 0. The “Plant response rating, Pigweed” value [6, 20] was 0, the “Pigweed plant response rating” value ([6]; Preemergence, scale 0 to 100) was 0 and the “Cupgrass, Woolly plant response rating” value ([7]; postemergence, 0-100 scale) was 75. For the same molecule, the “Plant response rating, Cupgrass, Woolly” value [7, 15] was 85, the “Plant response rating, Cupgrass, Woolly” value [7, 16] was 100 and the “Plant response rating, Cupgrass, Woolly” value [7, 17] was 100. For the same molecule, the “Plant response rating, Cupgrass, Woolly” value [7, 18] was 0, the “Plant response rating, Cupgrass, Woolly” value [7, 19] was 0 and the “Plant response rating, Cupgrass, Woolly” value [7, 20] was 0. For the same molecule, the “Cupgrass, Woolly plant response rating” value ([7]; Preemergence, scale 0 to 100) was 0, the “Oat, Wild plant response rating” value (wild oat (Avena fatua); postemergence, 0-100 scale) was 80 and the “Plant response rating, Oat, Wild” value (wild oat (Avena fatua); [15]) was 95. For the same molecule, the “Plant response rating, Oat, Wild” value (wild oat (Avena fatua); [16]) was 98, the “Plant response rating, Oat, Wild” value (wild oat (Avena fatua); [17]) was 100 and the “Plant response rating, Oat, Wild” value (wild oat (Avena fatua); [18]) was 5. The “Plant response rating, Oat, Wild” value (wild oat (Avena fatua); [21]) was 80, the “Plant response rating, Oat, Wild” value (wild oat (Avena fatua); [20]) was 85 and the “Oat, Wild plant response rating” value (wild oat (Avena fatua); Preemergence, scale 0 to 100) was 0. The “Plant response rating, Nightshade, E. B.” value [8, 13] was 0, the “Plant response rating, Nightshade, E. B.” value [8, 14] was 0 and the “Plant response rating, Nightshade, E. B.” value ([8]; 62 g ai/ha, scale 0 to 100) was 20. For the same molecule, the “Nightshade, E. B. plant response rating” value ([8]; 8 g ai/ha, scale 0 to 100) was 0, the “Foxtail, Green plant response rating” value ([9]; postemergence, 0-100 scale) was 70 and the “Plant response rating, Foxtail, Green” value [9, 15] was 98. The “Plant response rating, Foxtail, Green” value [9, 16] was 100, the “Plant response rating, Foxtail, Green” value [9, 17] was 100 and the “Plant response rating, Foxtail, Green” value [9, 18] was 80. The “Plant response rating, Foxtail, Green” value [9, 19] was 100, the “Plant response rating, Foxtail, Green” value [9, 20] was 100 and the “Foxtail, Green plant response rating” value ([9]; Preemergence, scale 0 to 100) was 30. For the same molecule, the “Ragweed plant response rating” value ([10]; postemergence, 0-100 scale) was 0, the “Plant response rating, Ragweed” value [10, 15] was 0 and the “Plant response rating, Ragweed” value [10, 16] was 0. For the same molecule, the “Plant response rating, Ragweed” value [10, 17] was 0, the “Plant response rating, Ragweed” value [10, 18] was 0 and the “Plant response rating, Ragweed” value [10, 21] was 0. The “Plant response rating, Ragweed” value [10, 20] was 0, the “Ragweed plant response rating” value ([10]; Preemergence, scale 0 to 100) was 0 and the “Johnsongrass plant response rating” value ([11]; postemergence, 0-100 scale) was 65. The “Plant response rating, Johnsongrass” value [11, 15] was 75, the “Plant response rating, Johnsongrass” value [11, 16] was 100 and the “Plant response rating, Johnsongrass” value [11, 17] was 100. The “Plant response rating, Johnsongrass” value [11, 18] was 60, the “Plant response rating, Johnsongrass” value [11, 19] was 75 and the “Plant response rating, Johnsongrass” value [11, 20] was 80. The “Johnsongrass plant response rating” value ([11]; Preemergence, scale 0 to 100) was 40, the “Plant response rating, Ducksalad” value [12, 22] was 0 and the “Plant response rating, Ducksalad” value [12, 23] was 0. For the same molecule, the “Plant response rating, Ducksalad” value [12, 24] was 30, the “Plant response rating, Ducksalad” value [12, 25] was 0 and the “Plant response rating, Rice” value (rice (Oryza sativa); [22]) was 0. The “Plant response rating, Rice” value (rice (Oryza sativa); [23]) was 0, the “Plant response rating, Rice” value (rice (Oryza sativa); [24]) was 0 and the “Plant response rating, Rice” value (rice (Oryza sativa); [25]) was 0.

— US20100267561A1, “HERBICIDAL PYRIDAZINONE DERIVATIVES” (priority 2007, published 2010)
